Data set [1] deals with T1, Solute carrier family 22 member 1 (Mus musculus, UniProt O08966).
T1 sequence (O08966 whole entry): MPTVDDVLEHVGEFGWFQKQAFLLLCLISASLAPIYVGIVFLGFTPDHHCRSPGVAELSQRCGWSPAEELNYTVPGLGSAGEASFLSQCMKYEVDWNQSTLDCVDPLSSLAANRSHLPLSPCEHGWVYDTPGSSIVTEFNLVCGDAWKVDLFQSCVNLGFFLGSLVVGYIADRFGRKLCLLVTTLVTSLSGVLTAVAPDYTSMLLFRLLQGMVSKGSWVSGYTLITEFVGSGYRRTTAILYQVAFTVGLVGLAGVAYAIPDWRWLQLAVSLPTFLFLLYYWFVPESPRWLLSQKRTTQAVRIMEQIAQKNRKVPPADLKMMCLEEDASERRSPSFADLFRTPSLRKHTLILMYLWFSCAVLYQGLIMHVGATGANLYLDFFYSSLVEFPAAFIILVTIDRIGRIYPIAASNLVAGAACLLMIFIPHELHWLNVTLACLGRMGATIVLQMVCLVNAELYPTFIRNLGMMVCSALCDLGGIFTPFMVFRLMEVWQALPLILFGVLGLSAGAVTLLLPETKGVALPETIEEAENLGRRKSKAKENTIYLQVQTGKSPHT
Nature of the data set: TP_TRANSPORTER: inhibition of TEA uptake (TEA: 140 uM, Procainamide: 10000 uM) in Xenopus laevis oocytes. In kind it is functional, cell-based, Oocyte. Also noted: scale not given: the % may be the effect or the level left. Conditions: probe TEA (140 uM), read-out: Activity.

For data set [2], the target named is T1, Solute carrier family 22 member 1. As to the kind of experiment: in vitro. The following applies: xenopus laevis, probe TEA (140 uM).
Substrate in data set [3]: CC[N+](CC)(CC)CC
As to the kind of experiment: cells, lysate or membranes named.

As for `CCN(CC)CCNC(=O)c1ccc(N)cc1` [PROCAINAMIDE], the activity at 10000 uM in data set [1] turned out to be 30.1%.
As for `Cc1ncc(C[n+]2csc(CCO)c2C)c(N)n1` [THIAMINE ION], in data set [2], the activity at 1000 µM turned out to be 12.7%.

B1: Solute carrier family 22 member 1 (Mus musculus) (protein)
chain: T1 sequence (O08966 whole entry)
For B1, the Km in data set [3] was determined as 38 µM.

(Values after ChEMBL document CHEMBL2073926, “Cloning and functional expression of a mouse liver organic cation transporter” (Hepatology, 1999).)
